Experimental data taken from PubChem BioAssay AID2060487 (Molecular Pharmacology Branch, DTP, NCI, 2025).
pIC50: −log10 of the molar value.

Tested on: 997537-175-T-J1-PDC complex spheroid viability
Assay: Anticancer human tumor 997537-175-T-J1-PDC patient-derived colon adenocarcinoma cell line growth inhibition [GQUAD]
Conditions: for pIC50: curve of first compound; for viability, T/C: stronger effect = lower value
In short: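 Multi-cell-type spheroids of tumor cells with HUVEC and mesenchymal stem cells, treated with drug combinations. Concentrations descend in half-log steps from near clinical Cmax, or from 10 microM where Cmax is unknown; viability read-out.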

[1] = second compound 0.0316 µM, first compound 0.0316 µM
[2] = second compound 0.0316 µM, first compound 0.1 µM
[3] = second compound 0.0316 µM, first compound 0.316 µM
[4] = second compound 0.0316 µM, first compound 1 µM
[5] = second compound 0.0316 µM, first compound 3.16 µM
[6] = second compound 0.0316 µM, first compound 10 µM
[7] = second compound 0.1 µM, first compound 0.0316 µM
[8] = second compound 0.1 µM, first compound 0.1 µM
[9] = second compound 0.1 µM, first compound 0.316 µM
[10] = second compound 0.1 µM, first compound 1 µM
[11] = second compound 0.1 µM, first compound 3.16 µM
[12] = second compound 0.1 µM, first compound 10 µM
[13] = second compound 0.316 µM, first compound 0.0316 µM
[14] = second compound 0.316 µM, first compound 0.1 µM
[15] = second compound 0.316 µM, first compound 0.316 µM
[16] = second compound 0.316 µM, first compound 1 µM
[17] = second compound 0.316 µM, first compound 3.16 µM
[18] = second compound 0.316 µM, first compound 10 µM
[19] = second compound 1 µM, first compound 0.0316 µM
[20] = second compound 1 µM, first compound 0.1 µM
[21] = second compound 1 µM, first compound 0.316 µM
[22] = second compound 1 µM, first compound 1 µM
[23] = second compound 1 µM, first compound 3.16 µM
[24] = second compound 1 µM, first compound 10 µM
[25] = second compound 3.16 µM, first compound 0.0316 µM
[26] = second compound 3.16 µM, first compound 0.1 µM
[27] = second compound 3.16 µM, first compound 0.316 µM
[28] = second compound 3.16 µM, first compound 1 µM
[29] = second compound 3.16 µM, first compound 3.16 µM
[30] = second compound 3.16 µM, first compound 10 µM
[31] = second compound 10 µM, first compound 0.0316 µM
[32] = second compound 10 µM, first compound 0.1 µM
[33] = second compound 10 µM, first compound 0.316 µM
[34] = second compound 10 µM, first compound 1 µM
[35] = second compound 10 µM, first compound 3.16 µM
[36] = second compound 10 µM, first compound 10 µM
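Also: spheroids exposed to the agents for 7 days.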
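For viability, T/C in this document: 100% = DMSO vehicle control viability.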

## C=CCn1c(=O)c2cnc(Nc3ccc(N4CCN(C)CC4)cc3)nc2n1-c1cccc(C(C)(C)O)n1 + Cc1[nH]c2ccc(F)cc2c1-c1nc2c3cccnc3c3ncccc3c2[nH]1
Second compound 0.0316 µM
  pIC50: 5.18
Second compound 0.1 µM
  pIC50: 5.20
Second compound 0.316 µM
  pIC50: 5.21
Second compound 1 µM
  pIC50: 5.26
Second compound 3.16 µM
  pIC50: 5.65
Second compound 10 µM
  pIC50: 5.68
[1]
  viability, T/C: 102%
[2]
  viability, T/C: 68.9%
[3]
  viability, T/C: 82.3%
[4]
  viability, T/C: 83.6%
[5]
  viability, T/C: 90.9%
[6]
  viability, T/C: 30%
[7]
  viability, T/C: 105%
[8]
  viability, T/C: 97.1%
[9]
  viability, T/C: 89.8%
[10]
  viability, T/C: 89.2%
[11]
  viability, T/C: 93.6%
[12]
  viability, T/C: 22.2%
[13]
  viability, T/C: 86.8%
[14]
  viability, T/C: 98.8%
[15]
  viability, T/C: 79.3%
[16]
  viability, T/C: 86.4%
[17]
  viability, T/C: 84.4%
[18]
  viability, T/C: 25%
[19]
  viability, T/C: 86.6%
[20]
  viability, T/C: 102%
[21]
  viability, T/C: 86.4%
[22]
  viability, T/C: 78.3%
[23]
  viability, T/C: 71.2%
[24]
  viability, T/C: 30.1%
[25]
  viability, T/C: 92%
[26]
  viability, T/C: 87.3%
[27]
  viability, T/C: 72.4%
[28]
  viability, T/C: 56.5%
[29]
  viability, T/C: 55%
[30]
  viability, T/C: 6.52%
[31]
  viability, T/C: 91.9%
[32]
  viability, T/C: 65.1%
[33]
  viability, T/C: 74.9%
[34]
  viability, T/C: 66.5%
[35]
  viability, T/C: 42.1%
[36]
  viability, T/C: 11.5%

## CCCS(=O)(=O)Nc1ccc(F)c(C(=O)c2c[nH]c3ncc(-c4ccc(Cl)cc4)cc23)c1F + Cc1[nH]c2ccc(F)cc2c1-c1nc2c3cccnc3c3ncccc3c2[nH]1
Second compound 0.0316 µM
  pIC50: 5.24
Second compound 0.1 µM
  pIC50: 5.25
Second compound 0.316 µM
  pIC50: 5.09
Second compound 1 µM
  pIC50: 5.72
Second compound 3.16 µM
  pIC50: 5.69
Second compound 10 µM
  pIC50: 5.83
[1]
  viability, T/C: 88.8%
[2]
  viability, T/C: 107%
[3]
  viability, T/C: 97.9%
[4]
  viability, T/C: 70.1%
[5]
  viability, T/C: 71.5%
[6]
  viability, T/C: 34.4%
[7]
  viability, T/C: 101%
[8]
  viability, T/C: 105%
[9]
  viability, T/C: 90%
[10]
  viability, T/C: 94.1%
[11]
  viability, T/C: 71.6%
[12]
  viability, T/C: 27.5%
[13]
  viability, T/C: 102%
[14]
  viability, T/C: 101%
[15]
  viability, T/C: 97.1%
[16]
  viability, T/C: 69.2%
[17]
  viability, T/C: 83.5%
[18]
  viability, T/C: 41.8%
[19]
  viability, T/C: 98.2%
[20]
  viability, T/C: 97.4%
[21]
  viability, T/C: 101%
[22]
  viability, T/C: 73.4%
[23]
  viability, T/C: 33.1%
[24]
  viability, T/C: 30.7%
[25]
  viability, T/C: 86%
[26]
  viability, T/C: 81%
[27]
  viability, T/C: 88%
[28]
  viability, T/C: 72.8%
[29]
  viability, T/C: 35.4%
[30]
  viability, T/C: 16.5%
[31]
  viability, T/C: 72.4%
[32]
  viability, T/C: 82.5%
[33]
  viability, T/C: 71.8%
[34]
  viability, T/C: 63.3%
[35]
  viability, T/C: 17.7%
[36]
  viability, T/C: 28.9%

## COc1ncnc(C2CC2)c1-c1ncc2cnn(Cc3ccc(-c4nc(C(F)(F)F)cn4C(C)C)cc3)c2n1 + Cc1[nH]c2ccc(F)cc2c1-c1nc2c3cccnc3c3ncccc3c2[nH]1
Second compound 0.0316 µM
  pIC50: 5.04
Second compound 0.1 µM
  pIC50: < 5.00
Second compound 0.316 µM
  pIC50: < 5.00
Second compound 1 µM
  pIC50: 5.03
Second compound 3.16 µM
  pIC50: 5.09
Second compound 10 µM
  pIC50: < 5.00
[1]
  viability, T/C: 100%
[2]
  viability, T/C: 98.9%
[3]
  viability, T/C: 103%
[4]
  viability, T/C: 93.1%
[5]
  viability, T/C: 98.8%
[6]
  viability, T/C: 46.2%
[7]
  viability, T/C: 100%
[8]
  viability, T/C: 107%
[9]
  viability, T/C: 102%
[10]
  viability, T/C: 96.3%
[11]
  viability, T/C: 87.9%
[12]
  viability, T/C: 70.5%
[13]
  viability, T/C: 104%
[14]
  viability, T/C: 101%
[15]
  viability, T/C: 100%
[16]
  viability, T/C: 96.7%
[17]
  viability, T/C: 91.8%
[18]
  viability, T/C: 50.9%
[19]
  viability, T/C: 91.7%
[20]
  viability, T/C: 103%
[21]
  viability, T/C: 101%
[22]
  viability, T/C: 93%
[23]
  viability, T/C: 92.8%
[24]
  viability, T/C: 46.8%
[25]
  viability, T/C: 83.1%
[26]
  viability, T/C: 86.5%
[27]
  viability, T/C: 87.2%
[28]
  viability, T/C: 84.2%
[29]
  viability, T/C: 76.7%
[30]
  viability, T/C: 44.2%
[31]
  viability, T/C: 85.3%
[32]
  viability, T/C: 87.8%
[33]
  viability, T/C: 89.1%
[34]
  viability, T/C: 89.5%
[35]
  viability, T/C: 72.9%
[36]
  viability, T/C: 59.6%
